Data on 2 compounds can be found in patent publication US10316050B2, “PT (IV) complexes containing 4,4′-disubstituted-2,2′-bipyridyl and their use in cancer therapy” (THE BOARD OF REGENTS OF THE NEVADA SYSTEM OF HIGHER …, priority 2014, dated 2019).

Common to all, as to format: cell-based, human
The subject of assay [1] is A549 cells. Briefly: Cell cycle analysis, propidium iodide flow cytometry, A549. Conditions: A549, 25 μM Pt(IV)-4C or 7.5 μM Pt(IV)-5C for 5 hours, analyzed 12 hours post treatment. As to the method:
(§1) FIG. 10 is a series of plots from a cell cycle analysis of A549 cells (top) and DU145 cells (bottom) cells treated with Pt(IV)-4C and Pt(IV)-5C. A549 cells were treated for 5 hours with control (left), 25 μM Pt(IV)-4C (center), or 7.5 μM Pt(IV)-5C (right), and analyzed 12 hours post treatment. DU145 cells were treated for 1 hour with control (left), 10 μM Pt(IV)-4C (center), or 2.5 μM Pt(IV)-5C (right), and analyzed 12 hours post treatment. Data are representative of three independent experiments.
(§2) Cells (˜50 to 60% confluent in 60 mm dishes) were treated as indicated with the platinum compound. After treatment, the floating cells were collected, and both attached and floating cells were washed 2× with PBS. The cells were resuspended in fresh medium and incubated as indicated. The cells were harvested (both the floating and attached cells were collected), counted, and pelleted. The cells were then washed two times with 5 mL PBS, fixed by resuspending in 0.1 mL of PBS and 1 mL of ice-cold 95% ethanol with gentle vortexing. Fixed cells were stored at 4° C. until analysis. For analysis, fixed cells were washed once with 1-2 mL of PBS and centrifuged at 500×g for 5 minutes. The cell pellet was resuspended in 100 μL of a 1.0% Triton X-100 buffer solution, and 100 μL of a 1.0 mg/mL RNAse solution was added and allowed to stand at room temperature for 10-15 minutes. […]
For orientation: Flow cytometry measures light scatter and fluorescence of single cells or particles in a stream.

In assay [2] the test system is DU145 cells. As to the kind of experiment: Cell cycle analysis, propidium iodide flow cytometry, DU145. The conditions noted are these: DU145, 10 μM Pt(IV)-4C or 2.5 μM Pt(IV)-5C for 1 hour, analyzed 12 hours post treatment. As to the method:
as §1, §2

The test system of assay [3] is A549 cells. Briefly: Annexin V/PI flow cytometry, A549. Conditions: A549, 25 μM Pt(IV)-4C or 10 μM Pt(IV)-5C for 5 hours, analyzed 12 hours post treatment. As to the method: (§3) FIG. 11 is a series of graphs showing flow cytometry analysis of Annexin V/PI staining in A549 cells (top) and DU145 cells (bottom) treated with Pt(IV)-4C and Pt(IV)-5C. A549 cells were treated for 5 hours with control (left), 25 μM Pt(IV)-4C (center), or 10 μM Pt(IV)-5C (right), and analyzed 12 hours post treatment. DU145 cells were treated for 1 hour with control (left), 10 μM Pt(IV)-4C (center), or 2.5 μM Pt(IV)-5C (right) and analyzed 12 hours post treatment. Q1=PI+, represents necrotic cells; Q2=Annexin V/PI+, representing late apoptotic/necrotic cells; Q3=Annexin V+, representing early apoptotic cells; Q4=AnnexinV/PI−, representing live cells. Data are representative of three independent experiments.
(§4) Cells (˜50 to 60% confluent in 60 mm dishes) were treated as indicated with the platinum compound. After treatment, the floating cells were collected, and both attached and floating cells were washed 2× with PBS. The cells were resuspended in fresh medium and incubated as indicated. The cells were harvested (both the floating and attached cells were collected), counted, and pelleted. The cells were then washed two times with 5 mL of Ca^2+ and Mg^2+ free PBS. The pellets were then washed in 2.0 mL of 1× Annexin-V Binding buffer (BD Bioscience, San Jose, CAS) and centrifuged at 500×g for 5 minutes. […] A quantitative measure of these event shifts was accomplished by gating. […]

Assay [4] concerns DU145 cells. Briefly: Annexin V/PI flow cytometry, DU145. Conditions: DU145, 10 μM Pt(IV)-4C or 2.5 μM Pt(IV)-5C for 1 hour, analyzed 12 hours post treatment. On the procedure:
as §3, §4

As for `CC(=O)[O][Pt]([Cl])([Cl])[O]C(C)=O.CCCCCOc1ccnc(-c2cc(OCCCCC)ccn2)c1` [Pt(IV)-5C, [Pt(IV)Cl2(OAc)2(4,4′-dipentoxy-2,2′-bipyridine)]], the “effect on the cell cycle / sub-G1 peak” value in assay [1] was “decreased percentage of cells in the G1 phase and a corresponding increase in the sub-G1 peak”; in assay [2], “did not affect the cell cycle”. For the same compound, the “Annexin V/PI staining (apoptosis)” value in assay [3] and in assay [4] was “induce apoptosis” each time.
With “[Pt(IV)Cl2(OAc)2(4,4′-dibutoxy-2,2′-bipyridine)] [Pt(IV)-4C]”, the “effect on the cell cycle / sub-G1 peak” value in assay [1] is “decreased percentage of cells in the G1 phase and a corresponding increase in the sub-G1 peak”; in assay [2], “did not affect the cell cycle”. The “Annexin V/PI staining (apoptosis)” value in assay [3] and in assay [4] was “induce apoptosis” throughout.
